Data on three compounds can be found in PMC3914206.

Type in all cases: binding
Holding throughout (conditions): Compound Concentration 10 µM

The target in test [1] is T1, panel of 442 kinases (Homo sapiens, UniProt P07949, V804M).
T1 construct: purchased KINOMEscan
An excerpt:
(§1) We assessed the selectivity of members of this scaffold using the KINOMEscan methodology across a near comprehensive panel of 442 kinases [[18,27]].

The target of test [2] is T2, panel of 442 kinases (Homo sapiens, UniProt Q9BQI3).
T2 construct: purchased KINOMEscan
Text: as §1

In test [3] the target is T3, panel of 442 kinases (Homo sapiens, UniProt O14733).
T3 construct: purchased KINOMEscan
T3 sequence (O14733 1-419): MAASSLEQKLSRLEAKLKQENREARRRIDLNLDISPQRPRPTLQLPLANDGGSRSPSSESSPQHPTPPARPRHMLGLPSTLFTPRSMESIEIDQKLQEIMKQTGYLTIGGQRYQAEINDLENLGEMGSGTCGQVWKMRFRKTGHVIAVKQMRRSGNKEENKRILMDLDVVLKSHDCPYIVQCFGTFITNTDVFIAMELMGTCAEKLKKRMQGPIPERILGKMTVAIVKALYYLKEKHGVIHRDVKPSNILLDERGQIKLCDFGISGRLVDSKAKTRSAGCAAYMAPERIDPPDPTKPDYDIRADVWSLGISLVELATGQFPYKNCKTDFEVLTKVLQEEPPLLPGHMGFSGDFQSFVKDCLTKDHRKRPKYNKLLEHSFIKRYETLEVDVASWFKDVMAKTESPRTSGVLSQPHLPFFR
Text: as §1

T1 sequence (P07949 29-1114 V804M): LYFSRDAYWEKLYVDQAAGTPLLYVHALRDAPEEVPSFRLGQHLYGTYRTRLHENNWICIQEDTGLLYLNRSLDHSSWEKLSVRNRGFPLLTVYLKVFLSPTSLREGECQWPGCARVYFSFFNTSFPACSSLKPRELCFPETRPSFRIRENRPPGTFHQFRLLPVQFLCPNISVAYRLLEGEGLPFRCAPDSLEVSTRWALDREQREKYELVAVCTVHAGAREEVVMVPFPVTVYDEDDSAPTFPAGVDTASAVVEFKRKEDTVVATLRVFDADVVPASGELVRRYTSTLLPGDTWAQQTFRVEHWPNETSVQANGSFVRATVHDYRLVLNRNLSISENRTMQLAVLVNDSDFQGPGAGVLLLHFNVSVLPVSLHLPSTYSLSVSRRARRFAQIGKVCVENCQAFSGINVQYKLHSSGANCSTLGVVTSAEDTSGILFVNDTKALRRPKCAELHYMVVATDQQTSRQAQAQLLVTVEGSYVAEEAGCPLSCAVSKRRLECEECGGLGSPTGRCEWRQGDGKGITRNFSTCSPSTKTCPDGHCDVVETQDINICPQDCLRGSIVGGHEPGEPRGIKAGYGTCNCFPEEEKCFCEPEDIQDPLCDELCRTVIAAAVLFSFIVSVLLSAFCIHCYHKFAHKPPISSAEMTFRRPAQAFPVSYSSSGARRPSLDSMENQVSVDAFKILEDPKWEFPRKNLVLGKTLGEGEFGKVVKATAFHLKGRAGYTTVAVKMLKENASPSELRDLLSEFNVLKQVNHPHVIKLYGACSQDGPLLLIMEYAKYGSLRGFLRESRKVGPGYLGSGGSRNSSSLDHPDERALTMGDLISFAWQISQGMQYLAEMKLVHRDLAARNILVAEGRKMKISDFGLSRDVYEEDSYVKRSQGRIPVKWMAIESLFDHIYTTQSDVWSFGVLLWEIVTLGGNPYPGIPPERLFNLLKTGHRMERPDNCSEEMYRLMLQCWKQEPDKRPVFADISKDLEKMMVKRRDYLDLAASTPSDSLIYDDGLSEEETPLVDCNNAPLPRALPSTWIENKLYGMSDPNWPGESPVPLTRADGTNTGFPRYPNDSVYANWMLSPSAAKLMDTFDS
T2 sequence (Q9BQI3 whole entry): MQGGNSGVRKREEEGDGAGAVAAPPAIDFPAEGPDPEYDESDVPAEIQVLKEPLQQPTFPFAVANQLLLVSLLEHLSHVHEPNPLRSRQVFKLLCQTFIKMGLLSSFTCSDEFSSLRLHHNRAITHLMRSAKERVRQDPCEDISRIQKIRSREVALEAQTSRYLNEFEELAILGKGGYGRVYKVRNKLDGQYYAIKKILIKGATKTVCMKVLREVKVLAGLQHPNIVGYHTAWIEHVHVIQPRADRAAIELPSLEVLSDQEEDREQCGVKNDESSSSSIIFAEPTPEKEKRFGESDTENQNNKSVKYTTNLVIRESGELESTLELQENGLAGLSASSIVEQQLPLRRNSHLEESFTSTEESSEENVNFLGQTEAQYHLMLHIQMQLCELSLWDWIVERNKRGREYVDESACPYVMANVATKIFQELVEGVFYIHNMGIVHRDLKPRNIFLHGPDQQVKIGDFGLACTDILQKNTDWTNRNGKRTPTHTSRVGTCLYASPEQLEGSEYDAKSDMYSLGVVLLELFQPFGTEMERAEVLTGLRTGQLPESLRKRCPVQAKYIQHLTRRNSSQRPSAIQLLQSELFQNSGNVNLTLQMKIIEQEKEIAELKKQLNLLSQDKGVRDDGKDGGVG

In the case of `COc1cc(C(=O)N2CCC(N3CCN(C)CC3)CC2)ccc1Nc1ncc2c(n1)N(C)c1ccccc1C(=O)N2C` [15 (LRRK2-IN-1)], the “KINOMEscan: RET(V804M)” value at panel of 442 kinases [1] turned out to be 80. Further, the “KINOMEscan: EIF2AK1” value on panel of 442 kinases [2] came out at 100. In addition, the “KINOMEscan: MKK7” value on panel of 442 kinases [3] came to 100.

For the compound `COc1cc(C(=O)N2CCC(N3CCN(C)CC3)CC2)ccc1Nc1ncc2c(n1)N(C1CCCC1)c1ccccc1C(=O)N2C` [Compound 25, 11-cyclopentyl-2-((2-methoxy-4-(4-(4-methylpiperazin-1-yl)piperidine-1-carbonyl)phenyl)amino)-5-methyl-5H-benzo[e]pyrimido[5,4-b][1,4]diazepin-6(11H)-one], the “KINOMEscan: RET(V804M)” value on panel of 442 kinases [1] is given as 100. For the same compound, the “KINOMEscan: EIF2AK1” value on panel of 442 kinases [2] is recorded as 100. The “KINOMEscan: MKK7” value at panel of 442 kinases [3] came to 100.

In the case of `CCOc1cc(C(=O)N2CCC(N3CCN(C)CC3)CC2)ccc1Nc1ncc2c(n1)N(C1CCCC1)c1ccccc1C(=O)N2C` [Compound 26], the “KINOMEscan: RET(V804M)” value on panel of 442 kinases [1] is given as 100. For the same compound, the “KINOMEscan: EIF2AK1” value at panel of 442 kinases [2] is recorded as 100. For the same compound, the “KINOMEscan: MKK7” value at panel of 442 kinases [3] came out at 88.
